Results from patent US5587490A, “Method of inactivation of viral and bacterial blood contaminants” (Credit Managers Association of California, priority 1993, dated 1996).
Like-named read-outs stand apart in the source and are kept apart here.

How the values were obtained:
[1] = tested on: bacterial phage λ; test: UV inactivation of lambda phage in plasma or fetal bovine serum; assay type: cell-based; conditions: Escherichia phage Lambda, light or radiation study, 0.5 h; Fetal bovine serum, 0.03 mg/mL, UVA 30 min. (8.4 J/cm^2); read-out: Viral Reduction (log), λ
Procedure: A stock solution of bacterial phage λ is added to plasma to obtain final titre of 1.2×10^8 PFU/ml and compound No. 3 (structure given above) at 0.1 mg/ml concentration. The mixture was transferred to Pyrex glass photolysis cells and exposed to UV (300-360 nm blue lamp) for 5 minutes. After UV irradiation treatment the final viral titre and Factor VIII activity were measured as described earlier. […] About 3-6 logs of increased viral inactivation was obtained with protein coated viruses using a sensitizer. Only 10% of Factor VIII activity was recovered after viral inactivation treatment.
(§1) Viral inactivation in FBS was carried out in 100 mL serum samples in 225 cm^2 tissue culture flask in the presence of sensitizer 8B (0.03 mg/mL). The sample was exposed to UVA light from top (3.6 mW/cm^2) and bottom (3.4 mW/cm^2) while continuously mixing on an orbital shaker for 30 min. (8.4 J/cm^2). Human plasma was irradiated in a Pyrex glass photolysis cell in the presence of sensitizer 8 (0.1 mg/mL) for 5 min. Inactivation of various bacteriophages were carried out using brominated psoralens in combination with UVA light. The results in Table 5 below clearly indicate that 5-7 logs of viral reduction was obtained with various phage (enveloped and non-enveloped) in human plasma fractions and fetal bovine serum products.

[2] = tested on: phi 6 phage; test: UV inactivation of phi 6 in human plasma or fetal bovine serum; assay type: cell-based; conditions: light or radiation study, 0.5 h; Fetal bovine serum, 0.03 mg/mL, UVA 30 min. (8.4 J/cm^2); read-out: Viral Reduction (log), phi 6
Procedure: as §1

[3] = tested on: platelets; assay type: cell-based, human
Procedure: (§2) Human platelet concentrates are mixed with phi 6 bacteriophage, with or without sensitizer, then exposed to U.V. light. Cell quality assays after treatment include morphology score conducted by visual inspection using a light microscope (using a Kunicki scoring system), hypotonic shock response (HSR), aggregation response induced by addition of ADP measured in an aggregometer, and cell number count.
(§3) 1. Soft spin platelet unit at 1000 rpm for 5 min to remove RBC.
(§4) 2. Dilute concentrated platelets with spun autologous plasma to obtain a conc. of 500×10^6 cells/ml.
(§5) 3. Add 5×10^6 of .phi.6 to the platelet suspension and mix gently.
(§6) 4. Add sensitizer to the platelet suspension and incubate for 15 min while protecting from light. Control samples have PBS added.
(§7) 5. Pipet 2 ml aliquots into small plastic petri dishes and irradiate with UV while rotating samples at 100 rpm on a shaker. Irradiate samples without cover.
(§8) 6. Transfer irradiated samples to 15 ml plastic centrifuge tubes.
(§9) 7. Determine morphology, HSR, ADP, Viral inactivation, cell count.
The vital inactivation values and in vitro properties of platelets subjected to viral inactivation treatment using various derivatives of psoralen are summarized in Table 1.
(§10) Single unit platelet concentrates were obtained 24 hours after collection from certified blood banks. The platelet were subjected to soft spin to remove residual RBC and about 6 logs of .phi.6 phage and sensitizer 8B were added in PBS solution to obtain 0.03 mg/mL final sensitizer concentration. The samples were transferred to Stericon™ polyolefin bag (which transmits 60% of UVA light) and irradiated from top (3.6 mW/cm^2) and bottom (3.4 mW/cm^2) in a home made reactor for 10 min. The bags were continuously mixed on extended glass platform attached to orbital shaker. The viral inactivation values and in vitro properties of platelet concentrates were monitored for 2 days after the treatment.

[4] = tested on: phi 6 bacteriophage; test: UV inactivation of phi 6 in platelet preparations; assay type: cell-based; conditions: for log reduction at 30 µg/mL: Bacteriophage sp., Platelet, light or radiation study, 10 min
Procedure: as §2, §3, §4, §5, §6, §7, §8, §9
To test the viral inactivation efficiency of brominated sensitizers, platelet preparations (2 mL, PRP) were spiked with .phi.6 phage and brominated psoralen (8B) and non-brominated psoralen(8C) were added to obtain final sensitizer concentration of 0.1 mg/mL. The samples were exposed to UVA light in a home made reactor consisting of 4 UVA lamps for the indicated time periods. The petri dishes containing samples were mixed on an orbital shaker during UVA exposure. The UVA light intensity at the sample position was measured at 3.3 mW/cm^2. The residual viral titer after each time point was measured by plaque method The viral reduction values are illustrated in FIG. 26.
Single unit platelet concentrates were obtained 24 hours after collection from certified blood banks. […] The viral inactivation values and in vitro properties of platelet concentrates were monitored for 2 days after the treatment.

[5] = tested on: platelet concentrates; test: pH of platelet concentrates after UV treatment; assay type: cell-based, human; conditions: Treated, UVA 10 min
Procedure: as §10

[6] = tested on: platelets; test: Platelet cell count after UV treatment; assay type: cell-based, human; conditions: Treated, UVA 10 min
Procedure: as §10

[7] = tested on: phi 6 phage; test: UVA inactivation of phi 6 in packed red cells; assay type: cell-based
Procedure: Units of packed red cells were transferred to Stericon™ red cell freezing bags and the hematocrits were adjusted to 60% with PBS. […] The samples were mixed continuously during UVA exposure on an orbital shaker. The final viral titer in the sample was determined by the plaque method. In vitro biochemical and biophysical properties of treated red cells were monitored for 7 day following the treatment.
The viral inactivation kinetics in red cells is dependent on the intensity of the UVA light source. The data in Table 4 below indicate that the time required to achieve 6 logs of viral reduction varies with the intensity of the UVA light source used.

[8] = tested on: red cells; test: Red cell in vitro properties following UVA viral inactivation treatment; assay type: cell-based, human; conditions: 0.3 mg/mL
Procedure: Units of packed red cells were transferred to Stericon™ red cell freezing bags and the hematocrits were adjusted to 60% with PBS. The samples were spiked with 5×10^6 PFU/mL .phi.6 phage and 0.3 mg/mL sensitizer 8B. The contents of the bag was exposed to UVA light from top (3.6 mW/cm^2) and bottom (3.4 mW/cm^2) for 6 hours (151.2 J/cm^2). The samples were mixed continuously during UVA exposure on an orbital shaker. The final viral titer in the sample was determined by the plaque method. In vitro biochemical and biophysical properties of treated red cells were monitored for 7 day following the treatment.

[9] = tested on: Salmonella typhimurium TA98; test: Ames mutagenicity plate incorporation assay, TA98; assay type: cell-based; conditions: average of duplicate plates
[10] = tested on: Salmonella typhimurium TA100; test: Ames mutagenicity plate incorporation assay, TA100; assay type: cell-based; conditions: average of duplicate plates
[11] = tested on: Salmonella typhimurium TA1535; test: Ames mutagenicity plate incorporation assay, TA1535; assay type: cell-based; conditions: average of duplicate plates
[12] = tested on: Salmonella typhimurium TA1537; test: Ames mutagenicity plate incorporation assay, TA1537; assay type: cell-based; conditions: average of duplicate plates
[13] = tested on: Salmonella typhimurium TA1538; test: Ames mutagenicity plate incorporation assay, TA1538; assay type: cell-based; conditions: average of duplicate plates
[14] = tested on: salmonella mutants; test: Standard Ames mutagenicity test, overall outcome; assay type: cell-based, Salmonella typhimurium; conditions: 0.6 mg/mL; in words

With CC[N+](CC)(CC)CCCOc1c2occc2c(Br)c2ccc(=O)oc12 [Sensitizer 8B] the log reduction at 30 µg/mL [1] was 6.6, the log reduction at 30 µg/mL [2] was 6.5 and the “ADP Agg.” value [3] was 26 ± 10. The “fold improvement in the level of viral inactivation, brominated (8B) vs non-brominated (8C)” value ([4]; 0.1 mg/mL, UVA 3.3 mW/cm^2) was ≤ 400 fold, the log reduction at 30 µg/mL ([4]; read-out: V.I (log10)) was 5.3 and the log reduction at 30 µg/mL ([4]; read-out: viral reduction) was > 5.3. It also gave a pH ([5]; 0 Hour) of 7.2, a pH ([5]; 24 Hours) of 7.1 and a pH ([5]; 48 Hours) of 6.8. For the same compound, the Cell count ([6]; 0 Hour) was 474, the Cell count ([6]; 24 Hours) was 499 and the Cell count ([6]; 48 Hours) was 506. For the same compound, the “Time Required for 6.0 logs V.I.” value ([7]; UV Reactor 1, Top, 3.3 mW/cm^2, 0.1 mg/mL, n = 1) was 16.4 Hours, the “Time Required for 6.0 logs V.I.” value ([7]; UV Reactor 2, Top + Bottom, 3.6/3.4 mW/cm^2, 0.1 mg/mL, n = 9) was 7.0 ± 1.2 Hours and the “Time Required for 6.0 logs V.I.” value ([7]; UV Reactor 3, Top + Bottom, 40/40 mW/cm^2, 0.1 mg/mL, n = 3) was 1.3 ± 0.4 Hours. The “alterations in in vitro biochemical and biophysical properties” value ([8]; UVA 6 hours, in words) was “without any significant alterations in in vitro biochemical and biophysical properties”, the “% Hemochrome” value ([8]; Treated, Day 1, UVA 6 hours) was 1.9% and the “DI Max % control (deformability index)” value ([8]; Treated, Day 1, UVA 6 hours) was 97.4 % control. For the same compound, the MCV ([8]; Treated, Day 1, UVA 6 hours (151.2 J/cm^2)) was 88.8, the “% Hemochrome” value ([8]; Treated, Day 2, UVA 6 hours) was 0.6% and the “DI Max % control (deformability index)” value ([8]; Treated, Day 2, UVA 6 hours) was 99.6 % control. The “% Hemochrome” value ([8]; Treated, Day 7, UVA 6 hours) was 0.2%, the “DI Max % control (deformability index)” value ([8]; Treated, Day 7, UVA 6 hours) was 99.0 % control and the “Number of Revertant Colonies” value ([9]; w/S-9) was 83. For the same compound, the “Number of Revertant Colonies” value ([9]; without S-9) was 55, the “Number of Revertant Colonies” value ([10]; w/S-9) was 245 and the “Number of Revertant Colonies” value ([10]; without S-9) was 164. For the same compound, the “Number of Revertant Colonies” value ([11]; w/S-9) was 197, the “Number of Revertant Colonies” value ([11]; without S-9) was 173 and the “Number of Revertant Colonies” value ([12]; w/S-9) was 26. The “Number of Revertant Colonies” value ([12]; without S-9) was 36, the “Number of Revertant Colonies” value ([13]; w/S-9) was 25 and the “Number of Revertant Colonies” value ([13]; without S-9) was 22. The Ames mutagenicity [14] was “non-mutagenic”.
